PubChem BioAssay AID330 (DTP/NCI, 2004)
Several values for one entry are separate records, joined by “and”; a condition that tells them apart may be missing. Equal entries are not always repeated. Toxic doses and inconclusive results are not listed. Rule for the calls: active = survival T/C of 150% or more; inactive = T/C below 125% in these data.

System: P388 leukemia ip, CD2F1 mice, survival T/C
Assay: NCI In Vivo Anticancer Drug Screen. Data for tumor model P388 Leukemia (intraperitoneal) in CD2F1 (CDF1) mice
Conditions: endpoint: median survival time, higher = longer survival
Method in brief: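 Mice carrying the transplanted tumor received test compound or vehicle. Survival was recorded in each group, and the value is the treated-group measurement divided by that of the vehicle-treated control group.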

[1] = dose: 50.0 mg/kg/injection, schedule: Q01DX005 (ip), vehicle: Klucel (hydroxypropylcellulose) (HPC)
[2] = dose: 100.0 mg/kg/injection, schedule: Q01DX005 (ip), vehicle: Klucel (hydroxypropylcellulose) (HPC)
[3] = dose: 200.0 mg/kg/injection, schedule: Q01DX005 (ip), vehicle: Klucel (hydroxypropylcellulose) (HPC)
[4] = dose: 100.0 mg/kg/injection, schedule: Q04DX003 (ip), vehicle: saline with Tween-80
[5] = dose: 200.0 mg/kg/injection, schedule: Q04DX003 (ip), vehicle: saline with Tween-80
[6] = dose: 400.0 mg/kg/injection, schedule: Q04DX003 (ip), vehicle: saline with Tween-80
[7] = dose: 50.0 mg/kg/injection, schedule: Q01DX005 (ip), vehicle: saline with Tween-80
[8] = dose: 200.0 mg/kg/injection, schedule: Q01DX005 (ip), vehicle: saline with Tween-80
[9] = dose: 50.0 mg/kg/injection, schedule: Q01DX009 (ip), vehicle: saline
[10] = dose: 100.0 mg/kg/injection, schedule: Q01DX009 (ip), vehicle: saline
[11] = dose: 200.0 mg/kg/injection, schedule: Q01DX009 (ip), vehicle: saline
[12] = dose: 15.0 mg/kg/injection, schedule: Q01DX005 (ip), vehicle: saline with Tween-80
[13] = dose: 30.0 mg/kg/injection, schedule: Q01DX005 (ip), vehicle: saline with Tween-80
[14] = dose: 50.0 mg/kg/injection, schedule: Q01DX009 (ip), vehicle: Klucel (hydroxypropylcellulose) (HPC)
[15] = dose: 100.0 mg/kg/injection, schedule: Q01DX009 (ip), vehicle: Klucel (hydroxypropylcellulose) (HPC)

Measured: T/C

Fc1c(F)c(C(F)(F)F)c(F)c(F)c1-n1nnc(-c2ccccc2)n1
inactive: [1] 99 % of control | [2] 96 % of control | [3] 100 % of control

CSC(=S)/N=c1\ccccn1C
inactive: dose: 25.0 mg/kg/injection, schedule: Q04DX002 (ip), vehicle: saline with Tween-80 102 % of control | dose: 50.0 mg/kg/injection, schedule: Q04DX002 (ip), vehicle: saline with Tween-80 99 % of control | dose: 100.0 mg/kg/injection, schedule: Q04DX002 (ip), vehicle: saline with Tween-80 102 % of control

Nc1nc(-c2ccccn2)cc2ccc(Cl)cc12
inactive: dose: 100.0 mg/kg/injection, schedule: Q01DX001 (ip), vehicle: saline with Tween-80 101 % of control | dose: 200.0 mg/kg/injection, schedule: Q01DX001 (ip), vehicle: saline with Tween-80 104 % of control | dose: 400.0 mg/kg/injection, schedule: Q01DX001 (ip), vehicle: saline with Tween-80 104 % of control

CSc1ccc(Cl)cc1NC(=O)N(C)C
inactive: [4] 98 % of control | [5] 98 % of control | [6] 96 % of control

CCOC1(C)OC2OC(COCc3ccccc3)C(OCc3ccccc3)C(OCc3ccccc3)C2O1 (stereo not drawn)
inactive: dose: 12.5 mg/kg/injection, schedule: Q01DX009 (ip), vehicle: other 99 % of control | dose: 25.0 mg/kg/injection, schedule: Q01DX009 (ip), vehicle: other 100 % of control | dose: 50.0 mg/kg/injection, schedule: Q01DX009 (ip), vehicle: other 100 % of control | dose: 100.0 mg/kg/injection, schedule: Q01DX009 (ip), vehicle: other 89 % of control | dose: 200.0 mg/kg/injection, schedule: Q01DX009 (ip), vehicle: other 98 % of control

Cc1cnc2cc(Cl)ccc2c1NCCNCCO
inactive: dose: 50.0 mg/kg/injection, schedule: Q01DX005 (ip), vehicle: saline 119 % of control | dose: 100.0 mg/kg/injection, schedule: Q01DX005 (ip), vehicle: saline 119 % of control

COC(=O)c1c(-c2ccc(OC)c(OC)c2)cn(C)c1C
inactive: [7] 104 % of control | dose: 100.0 mg/kg/injection, schedule: Q01DX005 (ip), vehicle: saline with Tween-80 96 % of control | [8] 91 % of control

COC1=C(OC)C(=O)C(SCCCCCCC2CCCCC2)=CC1=O
inactive: dose: 16.0 mg/kg/injection, schedule: Q01DX009 (ip), vehicle: Klucel (hydroxypropylcellulose) (HPC) 96 % of control | dose: 32.0 mg/kg/injection, schedule: Q01DX009 (ip), vehicle: Klucel (hydroxypropylcellulose) (HPC) 92 % of control

C=C[Se](=C(C(=O)c1ccccc1)C(=O)c1ccccc1)c1ccccc1 (stereo not drawn)
inactive: dose: 6.25 mg/kg/injection, schedule: Q01DX009 (ip), vehicle: saline 96 % of control | dose: 12.5 mg/kg/injection, schedule: Q01DX009 (ip), vehicle: saline 103 % of control | dose: 25.0 mg/kg/injection, schedule: Q01DX009 (ip), vehicle: saline 99 % of control | [9] 107 % of control | [10] 113 % of control | [11] 113 % of control

CN(C)c1ccc(C2CC(C)(O)Oc3cc4c(cc32)OCO4)cc1 (stereo not drawn)
inactive: dose: 60.0 mg/kg/injection, schedule: Q01DX005 (ip), vehicle: Klucel (hydroxypropylcellulose) (HPC) 102 % of control | dose: 120.0 mg/kg/injection, schedule: Q01DX005 (ip), vehicle: Klucel (hydroxypropylcellulose) (HPC) 110 % of control | dose: 240.0 mg/kg/injection, schedule: Q01DX005 (ip), vehicle: Klucel (hydroxypropylcellulose) (HPC) 108 % of control

CCCC(=O)C1C(c2ccccc2)CC(=O)C(CC)C1c1ccccc1 (stereo not drawn)
inactive: dose: 12.5 mg/kg/injection, schedule: Q01DX005 (ip), vehicle: saline with Tween-80 90 % of control | dose: 25.0 mg/kg/injection, schedule: Q01DX005 (ip), vehicle: saline with Tween-80 95 % of control | [7] 88 % of control and 90 % of control | [8] 88 % of control

COc1c(Cl)cccc1N=Cc1ccc(C=Nc2cccc(Cl)c2OC)cc1
inactive: [9] 97 % of control | [10] 90 % of control | [11] 89 % of control

COc1ccc(/C=C/C(=O)c2ccccc(=O)c2O)cc1OC
inactive: dose: 25.0 mg/kg/injection, schedule: Q01DX005 (ip), vehicle: Klucel (hydroxypropylcellulose) (HPC) 99 % of control | [1] 100 % of control | [2] 114 % of control | [3] 113 % of control

c1ccc(CN2COCO[C@H]3CCC[C@@H]32)cc1
inactive: [1] 107 % of control | [2] 104 % of control

CCn1c2ccccc2n2c(=O)c(Cc3ccccc3)c(C)c(C#N)c12
inactive: [12] 92 % of control | [13] 91 % of control | dose: 60.0 mg/kg/injection, schedule: Q01DX005 (ip), vehicle: saline with Tween-80 88 % of control and 89 % of control | dose: 240.0 mg/kg/injection, schedule: Q01DX005 (ip), vehicle: saline with Tween-80 86 % of control

COc1cc(/C=C/c2ccccn2)oc(=O)c1
inactive: dose: 100.0 mg/kg/injection, schedule: Q04DX002 (ip), vehicle: Klucel (hydroxypropylcellulose) (HPC) 102 % of control | dose: 200.0 mg/kg/injection, schedule: Q04DX002 (ip), vehicle: Klucel (hydroxypropylcellulose) (HPC) 100 % of control | dose: 400.0 mg/kg/injection, schedule: Q04DX002 (ip), vehicle: Klucel (hydroxypropylcellulose) (HPC) 100 % of control

CS(=O)(=O)OCC(Br)C(Br)COS(C)(=O)=O (stereo not drawn)
inactive: [14] 107 % of control | [15] 87 % of control

CC(C)(C)SC#CC(Sc1ccccc1)=C(Sc1ccccc1)Sc1ccccc1
inactive: [4] 100 % of control | [5] 100 % of control | [6] 100 % of control

CC(=O)[O][Sn]([CH3])([CH3])[CH3]
inactive: dose: 0.37 mg/kg/injection, schedule: Q01DX009 (ip), vehicle: saline 112 % of control | dose: 0.75 mg/kg/injection, schedule: Q01DX009 (ip), vehicle: saline 112 % of control

CC(C)=CCCC(=O)C(c1nc2n(c1O)C(=N)N=N2)c1nc2n(c1O)C(=N)N=N2 (stereo not drawn)
inactive: dose: 60.0 mg/kg/injection, schedule: Q01DX005 (ip), vehicle: saline 95 % of control | dose: 120.0 mg/kg/injection, schedule: Q01DX005 (ip), vehicle: saline 97 % of control | dose: 240.0 mg/kg/injection, schedule: Q01DX005 (ip), vehicle: saline 97 % of control

NC(CS)=NCC12CC3CC(CC(C3)C1)C2
inactive: dose: 7.5 mg/kg/injection, schedule: Q01DX005 (ip), vehicle: saline with Tween-80 100 % of control | [12] 100 % of control | [13] 115 % of control

CCOC(CN=Cc1cc(C)c2sc3ccccc3c2c1C)OCC
inactive: dose: 25.0 mg/kg/injection, schedule: Q01DX009 (ip), vehicle: saline with Tween-80 110 % of control | dose: 50.0 mg/kg/injection, schedule: Q01DX009 (ip), vehicle: saline with Tween-80 103 % of control | dose: 100.0 mg/kg/injection, schedule: Q01DX009 (ip), vehicle: saline with Tween-80 108 % of control | dose: 200.0 mg/kg/injection, schedule: Q01DX009 (ip), vehicle: saline with Tween-80 111 % of control

CCCCCCCCCCCCCN1CCS(=O)(=O)CC1
inactive: [14] 98 % of control | [15] 94 % of control | dose: 200.0 mg/kg/injection, schedule: Q01DX009 (ip), vehicle: Klucel (hydroxypropylcellulose) (HPC) 89 % of control

Cc1ccc(S(=O)(=O)N/N=C/c2ccc(O)c(S(=O)(=O)O)c2)cc1
inactive: dose: 12.5 mg/kg/injection, schedule: Q01DX009 (ip), vehicle: water 97 % of control | dose: 25.0 mg/kg/injection, schedule: Q01DX009 (ip), vehicle: water 101 % of control | dose: 50.0 mg/kg/injection, schedule: Q01DX009 (ip), vehicle: water 101 % of control | dose: 100.0 mg/kg/injection, schedule: Q01DX009 (ip), vehicle: water 110 % of control | dose: 200.0 mg/kg/injection, schedule: Q01DX009 (ip), vehicle: water 99 % of control
